Publication PMC4721540, “Selective activators of protein phosphatase 5 target the auto-inhibitory mechanism” (Bioscience Reports, 2015)
Where a chain is given by its changes, count along the chain named. ≈ marks a conversion by molar mass, not a printed value. Entries after “also recorded” stand apart in the source; their conditions may differ.

Experiments:
physchem = assay type: physicochemical; settings: 20 °C, pH 7.5, aqueous buffer
Procedure: (§1) Phosphatase assays for characterization of PP5 and PPH-5 properties were performed in 40 mM HEPES/KOH, 20 mM KCl, 5 mM MnCl2, 1 mM DTT, pH 7.5 and 60 mM pNPP at 20°C if not indicated otherwise. Phosphatase concentrations ranged from 50 to 500 nM in the assay. If indicated, the CeHsp90/DAF-21 peptide AEEDASRMEEVD was supplemented in the assay at a concentration of 60 μM. […] These concentrations were 70 μM for P5SA-1, 140 μM for P5SA-2, 50 μM for P5SA-3, 100 μM for P5SA-4 and 45 μM for P5SA-5.

PP5 428–430 = molecular target: T1, PP5 428–430 (Rattus norvegicus, UniProt P53042, E428A/K430A/V429A); assay: pNPP phosphatase assay with PP5 428–430 mutant; assay type: biochemical; settings: compound at 100 μM
T1 construct: made in house; host or cells: E. coli BL21-CodonPlus (DE3)-RIL
T1 sequence (P53042 1-499 E428A/V429A/K430A): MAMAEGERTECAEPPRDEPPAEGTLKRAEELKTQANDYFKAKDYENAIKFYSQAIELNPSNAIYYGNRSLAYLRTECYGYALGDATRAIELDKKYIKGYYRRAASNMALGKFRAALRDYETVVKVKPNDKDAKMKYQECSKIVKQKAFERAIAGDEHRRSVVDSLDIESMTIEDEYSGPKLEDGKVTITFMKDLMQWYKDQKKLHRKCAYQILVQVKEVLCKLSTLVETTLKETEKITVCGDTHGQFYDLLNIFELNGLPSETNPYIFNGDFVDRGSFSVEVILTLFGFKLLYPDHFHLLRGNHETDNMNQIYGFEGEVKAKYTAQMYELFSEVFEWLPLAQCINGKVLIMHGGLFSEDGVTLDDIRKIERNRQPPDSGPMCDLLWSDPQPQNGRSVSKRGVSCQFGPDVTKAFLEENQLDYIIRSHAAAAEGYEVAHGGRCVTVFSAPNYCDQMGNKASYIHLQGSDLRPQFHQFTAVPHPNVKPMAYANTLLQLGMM
Procedure: (§2) Cloning and purification of PPH-5 (protein phosphatase homologue), CeHsp90/DAF-21 (abnormal DAuer formation), YFP-CeHsp90/DAF-21, BAG-1 (Bcl-2 associated athanogene-1), DNJ-13 (DNJ-13 homologue) and CeHsc70 (C. elegans heat shock cognate 70) were performed as described before. The human phosphatases PP1, PP2A and PP2B/PP3 were purified as described. The expression clones of rat PP5, PP5-ΔN165 (166–499) and PP5-ΔC8 (1–491) were generated by PCR and insertion of the DNA into the pET28 vector. Expression clones of PP5 428–430, which contains A^428-A^429-A^430 instead of E^428-V^429-K^430 and PP5 […], which contains A^428-A^429-A^430 instead of E^428-V^429-K^430 and A^455-G^456-A^457 instead of M^455-G^456-N^457, were also generated by PCR using primer sequences containing the modified codons. PCR-products were inserted into the pET28b expression plasmid (Merck) and verified by DNA sequencing (GATC Biotech). Proteins were expressed in BL21-CodonPlus (DE3)-RIL bacteria (Stratagene). Bacterial cultures were grown to a D600 of 0.8 and induced with 1 mM IPTG. Cells were disrupted using a cell disruption machine (IUL Instruments) and the lysate was loaded on to a HisTrap FF column (GE Healthcare). […] Protein purity was assessed by SDS/PAGE and the molecular mass was determined on an UltraFlex III MALDI-TOF/TOF mass spectrometer (Bruker). […]

PP5 = molecular target: T2, PP5 (Rattus norvegicus, UniProt P53042); assay: pNPP phosphatase assay with rat PP5; assay type: biochemical, R. norvegicus; settings: for fold activation: PP5 (R. norvegicus), compound at 100 μM
T2 construct: His tag (inferred from pET28 vector and HisTrap purification); made in house; host or cells: E. coli BL21-CodonPlus (DE3)-RIL
T2 sequence (P53042 1-499): T1 sequence (P53042 1-499 E428A/V429A/K430A) with A428E, A429V, A430K
Procedure: as §1

PP5 428–430/455–457 = molecular target: T3, PP5 428–430/455–457 (Rattus norvegicus, UniProt P53042, E428A/K430A/M455A/N457A/V429A); assay: pNPP phosphatase assay with PP5 428–430/455–457 mutant; assay type: biochemical; settings: compound at 100 μM
T3 construct: made in house; host or cells: E. coli BL21-CodonPlus (DE3)-RIL
T3 sequence (P53042 1-499 E428A/V429A/K430A/M455A/N457A): T1 sequence (P53042 1-499 E428A/V429A/K430A) with M455A, N457A
Procedure: as §2

SMILES: CNC(=O)c1c(NC(=O)COCC(=O)Nc2sc3c(c2C(=O)NC)CCC3)sc2c1CCC2 [P5SA-5]
- solubility (physchem): 45 µM (≈ 22.1 µg/mL)
- stimulation of PP5 428–430 (single-loop mutant) (PP5 428–430): did not stimulate the catalytic activity
- fold activation (PP5): 8.6
- stimulation of full-length rat PP5 at lower concentration (PP5; compound at 10 μM): effect at the lower concentration was detectable
- stimulation of PP5 428–430/455–457 (PP5 428–430/455–457): could not detect stimulation; also recorded: did not stimulate the catalytic activity

SMILES: COc1ccc(-c2nc(Cc3ccc(Cl)cc3)no2)cc1OC [P5SA-2]
- solubility (physchem): 140 µM (≈ 46.3 µg/mL)
- stimulation of PP5 428–430 (single-loop mutant) (PP5 428–430): no activation could be achieved
- fold activation (PP5): 3.9
- stimulation of PP5 428–430/455–457 (PP5 428–430/455–457): could not observe any stimulation
